Our source for the GI50 and TGI values is PubChem BioAssay (NCI).

Test systems include ACHN renal; SNB-19 CNS; M14 melanoma; HCT-15 colon; COLO 205 colon; NCI-H23 lung; HOP-92 NSCLC.
Common to all, as to experiment: NCI tumour cell line growth inhibition, 48 h

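The compound was tested at five concentrations on cells cultured in 96-well plates, with a 48-hour exposure period. GI50: concentration for 50% inhibition of growth. TGI marks complete inhibition of growth.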 Where only a bound is given, the exact number is not on record here.

For the compound `O=C(CCCCCCN1CC(=O)N2[C@@H](c3ccc(Cl)c(Cl)c3)c3[nH]c4ccccc4c3C[C@H]2C1=O)NO`, the GI50 with ACHN renal is 5.34 µM; in the experiment with SNB-19 CNS, 4.54 µM; in the experiment on M14 melanoma, 4220 nM; in the experiment on HCT-15 colon it was 10000 nM; in the experiment with COLO 205 colon, 3500 nM; with NCI-H23 lung it was 4730 nM. Besides, in the experiment with HOP-92 NSCLC, the GI50 was 1590 nM. The TGI with ACHN renal is 12.9 µM; in the experiment with SNB-19 CNS, 12.5 µM; with M14 melanoma it was 14.5 µM; in the experiment with HCT-15 colon, more than 33.3 µM; in the experiment with COLO 205 colon it was 10.1 µM; in the experiment on NCI-H23 lung, 13.5 µM. In the experiment with HOP-92 NSCLC, this compound returned a TGI of 7.41 µM.
Turning to `COc1cc(/C=C/C(=O)c2cccc(-n3cc(-c4ccc(Cl)cc4)[nH]c3=O)c2)cc(OC)c1OC`, the GI50 in the experiment on ACHN renal was 7.17 µM; in the experiment on SNB-19 CNS, 16.1 µM; in the experiment on M14 melanoma it was 4360 nM; with HCT-15 colon, 3850 nM; in the experiment with COLO 205 colon, 7380 nM; in the experiment with NCI-H23 lung it was 3560 nM. Also, the GI50 in the experiment with HOP-92 NSCLC was more than 100000 nM. Further, the TGI in the experiment with ACHN renal was found to be 19.5 µM; in the experiment with SNB-19 CNS it was 37 µM; with M14 melanoma, 18.3 µM; with HCT-15 colon, 10.3 µM; with COLO 205 colon, 20.2 µM; with NCI-H23 lung, 16.9 µM. Further, in the experiment on HOP-92 NSCLC, the TGI was more than 100 µM.
As for `CSc1nc2sc3c(c2c(=O)n1-c1ccc(C(C)C)cc1)CCC(=O)C3`, the GI50 in the experiment on ACHN renal is 2.25 µM; in the experiment with SNB-19 CNS, 2.15 µM; in the experiment on M14 melanoma it was 2820 nM; with HCT-15 colon it was 2140 nM; in the experiment on COLO 205 colon it was 1890 nM; in the experiment on NCI-H23 lung, 2200 nM. In the experiment on HOP-92 NSCLC, the GI50 was 2210 nM. Also, the TGI was 4.48 µM in the experiment on ACHN renal; 4.56 µM in the experiment with SNB-19 CNS; 7.6 µM in the experiment on M14 melanoma; 4.04 µM with HCT-15 colon; 3.63 µM with COLO 205 colon; 4.53 µM in the experiment with NCI-H23 lung. In the experiment on HOP-92 NSCLC, this compound returned a TGI of 5.24 µM.
On to `CCc1cccc(C)c1NC(=O)c1sc2nc3c(cc2c1N)C(=O)CCC3`, for which the GI50 was 0.872 µM in the experiment on ACHN renal; 0.918 µM with SNB-19 CNS; 430 nM in the experiment with M14 melanoma; 495 nM with HCT-15 colon; 350 nM in the experiment on COLO 205 colon; 732 nM in the experiment on NCI-H23 lung. Further, the GI50 with HOP-92 NSCLC was 644 nM. The TGI in the experiment on ACHN renal is more than 100 µM; with SNB-19 CNS, more than 100 µM; in the experiment on M14 melanoma, 25.8 µM; in the experiment on HCT-15 colon it was more than 100 µM; in the experiment on COLO 205 colon, 1.51 µM; in the experiment with NCI-H23 lung, more than 100 µM. Further, the TGI with HOP-92 NSCLC was 74.7 µM.
Consider `COc1cc2nc(-c3cc(F)ccc3O)nc(N[C@@H]3CNC[C@H]3C(C)(C)O)c2cc1OC`, for which the GI50 in the experiment on ACHN renal is 1.75 µM; in the experiment with SNB-19 CNS, 1.91 µM; in the experiment on M14 melanoma, 1870 nM; with HCT-15 colon, 1790 nM; in the experiment on COLO 205 colon, 1630 nM; in the experiment on NCI-H23 lung, 1670 nM. Also, the GI50 with HOP-92 NSCLC was 465 nM. Moreover, the TGI turned out to be 3.38 µM in the experiment with ACHN renal; 4.02 µM in the experiment with SNB-19 CNS; 3.47 µM in the experiment on M14 melanoma; 3.46 µM with HCT-15 colon; 3.16 µM in the experiment on COLO 205 colon; 3.42 µM with NCI-H23 lung. Besides, the TGI with HOP-92 NSCLC was determined as 1.9 µM.
In the case of `O=C1c2sccc2-c2cccc3cccc1c23` (tested in a mixture with another compound), the TGI is 12.2 µM with ACHN renal; 35 µM with SNB-19 CNS; more than 100 µM in the experiment with M14 melanoma; 24.9 µM in the experiment with HCT-15 colon; 15.6 µM in the experiment with COLO 205 colon.
As to `N#CCN1CCn2c1nsc2=S`, the GI50 with ACHN renal was more than 100 µM; in the experiment with SNB-19 CNS, more than 100 µM; with M14 melanoma it was more than 100000 nM; in the experiment with HCT-15 colon, more than 100000 nM; in the experiment on COLO 205 colon it was 85500 nM; in the experiment with HOP-92 NSCLC it was more than 100000 nM. Moreover, the TGI with ACHN renal, with SNB-19 CNS, in the experiment on M14 melanoma, in the experiment with HCT-15 colon, in the experiment on COLO 205 colon and with HOP-92 NSCLC was more than 100 µM each time.
With `O=C(Nc1cccc(-n2cc(-c3ccncc3)c(-c3cc(O)cc(Cl)c3)n2)c1)c1cc(C(F)(F)F)cc(C(F)(F)F)c1`, the GI50 with ACHN renal was 4.98 µM; in the experiment with SNB-19 CNS, 7.03 µM; in the experiment on M14 melanoma, 3010 nM; in the experiment on HCT-15 colon it was 2600 nM; in the experiment with COLO 205 colon, 2320 nM; in the experiment with NCI-H23 lung it was 4160 nM. In addition, the TGI is more than 100 µM with ACHN renal; more than 100 µM in the experiment with SNB-19 CNS; more than 100 µM in the experiment on M14 melanoma; 14.7 µM in the experiment with HCT-15 colon; 5.74 µM in the experiment on COLO 205 colon; 46.5 µM in the experiment with NCI-H23 lung.
With `O=C(O)CCC(=O)c1ccc2sc3ccccc3c2c1`, the TGI in the experiment on ACHN renal, in the experiment on SNB-19 CNS, in the experiment on M14 melanoma, in the experiment on HCT-15 colon, in the experiment on COLO 205 colon and with NCI-H23 lung was more than 100 µM throughout.
As for `COc1cc2c(cc1OC)-c1ncc3c(OC)c(OC)c(OC)cc3c1C2`, the GI50 was 16.7 µM with ACHN renal; 23 µM in the experiment on SNB-19 CNS; more than 100000 nM with M14 melanoma; 13700 nM in the experiment on HCT-15 colon; more than 100000 nM in the experiment with COLO 205 colon; 58500 nM in the experiment with HOP-92 NSCLC. Moreover, the TGI with ACHN renal is 43.8 µM; in the experiment on SNB-19 CNS, 50 µM; with M14 melanoma, more than 100 µM; in the experiment with HCT-15 colon, 44.5 µM; in the experiment on COLO 205 colon it was more than 100 µM; with HOP-92 NSCLC it was more than 100 µM.
On to `OC(C#Cc1ccccc1)(c1ccccc1)c1ccccc1`, for which the TGI in the experiment on ACHN renal, with SNB-19 CNS, with M14 melanoma, in the experiment on HCT-15 colon, in the experiment with COLO 205 colon and with NCI-H23 lung was more than 100 µM each time.
Take `CC1OC(OC2C(O)CC(OC3C(O)CC(OC4CCC5(C)C(CCC6C5CC(O)C5(C)C(C7=CC(=O)OC7)CCC65O)C4)OC3C)OC2C)CC(O)C1O` (stereo not given): the GI50 is 0.0358 µM in the experiment with ACHN renal; 0.113 µM in the experiment on SNB-19 CNS; 176 nM in the experiment on M14 melanoma; 113 nM in the experiment with HCT-15 colon; 131 nM with COLO 205 colon; 23.5 nM with NCI-H23 lung. Further, the TGI is 0.126 µM in the experiment with ACHN renal; 0.238 µM with SNB-19 CNS; 0.349 µM in the experiment with M14 melanoma; 0.293 µM with HCT-15 colon; 0.272 µM in the experiment on COLO 205 colon; 0.0662 µM with NCI-H23 lung.
